Assay results from US12540128B2, “Substituted pyridazinones as herbicides” (SYNGENTA CROP PROTECTION AG, priority 2019, dated 2026).

Assays:
Format in all cases: in vivo
Settings in all cases: 250 g/ha, after 13 days
[1] = tested on: Abutilon theophrasti (ABUTH); test: B4 Pre-Emergence Efficacy Test 2
Experimental: (§1) Seeds of a variety of test species were sown in standard soil in pots: Amaranthus retoflexus (AMARE), Setaria faberi (SETFA), Echinochloa crus-galli (ECHCG), Ipomoea hederacea (IPOHE), Zea Mays (ZEAMX), Abutilon theophrasti (ABUTH). After cultivation for one day (pre-emergence) under controlled conditions in a glasshouse (at 24/16° C., day/night; 14 hours light; 65% humidity), the plants were sprayed with an aqueous spray solution derived from the formulation of the technical active ingredient in acetone/water (50:50) solution containing 0.5% Tween 20 (polyoxyethelyene sorbitan monolaurate, CAS RN 9005-64-5). Compounds are applied at 250 g/ha. The test plants were then grown in a glasshouse under controlled conditions (at 24/16° C., day/night; 14 hours light; 65% humidity) and watered twice daily. After 13 days, the test is evaluated for the percentage damage caused to the plant. The biological activities are assessed on a five point scale (5=80-100%; 4=60-79%; 3=40-59%; 2=20-39%; 1=0-19%). A blank value in the table is indicative that the compound was not tested on that species.

[2] = tested on: Echinochloa crus-galli (ECHCG); test: B4 Pre-Emergence Efficacy Test 2
Experimental: as §1

[3] = tested on: Amaranthus retoflexus (AMARE); test: B4 Pre-Emergence Efficacy Test 2
Experimental: as §1

Zea Mays (ZEAMX) [4] = test: B4 Pre-Emergence Efficacy Test 2
Experimental: as §1

[5] = tested on: Ipomoea hederacea (IPOHE); test: B4 Pre-Emergence Efficacy Test 2
Experimental: as §1

Setaria faberi (SETFA) [6] = test: B4 Pre-Emergence Efficacy Test 2
Experimental: as §1

[7] = tested on: Abutilon theophrasti (ABUTH); test: B2 Post-Emergence Efficacy Test 2
Experimental: (§2) Seeds of a variety of test species are sown in standard soil in pots:— Amaranthus retoflexus (AMARE), Setaria faberi (SETFA), Echinochloa crus-galli (ECHCG), Ipomoea hederacea (IPOHE), Zea Mays (ZEAMX), Abutilon theophrasti (ABUTH). After 8 days cultivation (post-emergence) under controlled conditions in a glasshouse (at 24/16° C., day/night; 14 hours light; 65% humidity), the plants are sprayed with an aqueous spray solution derived from the formulation of the technical active ingredient in acetone/water (50:50) solution containing 0.5% Tween 20 (polyoxyethylene sorbitan monolaurate, CAS RN 9005-64-5). Compounds are applied at 250 g/ha. The test plants are then grown in a glasshouse under controlled conditions in a glasshouse (at 24/16° C., day/night; 14 hours light; 65% humidity) and watered twice daily. After 13 days, the test is evaluated for the percentage damage caused to the plant. The biological activities are assessed on a five point scale (5=80-100%; 4=60-79%; 3=40-59%; 2=20-39%; 1=0-19%). A blank value in the table is indicative that the compound was not tested on that species.

[8] = tested on: Echinochloa crus-galli (ECHCG); test: B2 Post-Emergence Efficacy Test 2
Experimental: as §2

[9] = tested on: Amaranthus retoflexus (AMARE); test: B2 Post-Emergence Efficacy Test 2
Experimental: as §2

Zea Mays (ZEAMX) [10] = test: B2 Post-Emergence Efficacy Test 2
Experimental: as §2

[11] = tested on: Ipomoea hederacea (IPOHE); test: B2 Post-Emergence Efficacy Test 2
Experimental: as §2

Setaria faberi (SETFA) [12] = test: B2 Post-Emergence Efficacy Test 2
Experimental: as §2

SMILES	percentage damage caused to the plant, five point scale, ABUTH [1]	percentage damage caused to the plant, five point scale, ECHCG [2]	percentage damage caused to the plant, five point scale, AMARE [3]	percentage damage caused to the plant, five point scale, ZEAMX (Zea Mays (ZEAMX) [4])	percentage damage caused to the plant, five point scale, IPOHE [5]	percentage damage caused to the plant, five point scale, SETFA (Setaria faberi (SETFA) [6])	percentage damage caused to the plant, five point scale, ABUTH [7]	percentage damage caused to the plant, five point scale, ECHCG [8]	percentage damage caused to the plant, five point scale, AMARE [9]	percentage damage caused to the plant, five point scale, ZEAMX (Zea Mays (ZEAMX) [10])	percentage damage caused to the plant, five point scale, IPOHE [11]	percentage damage caused to the plant, five point scale, SETFA (Setaria faberi (SETFA) [12])
Cc1nn(C)c(=O)c(-c2c(F)ccc(Cl)c2CCc2nn(C)c3ccccc23)c1O [Compound 1.344]	4 (4=60-79%)	2 (2=20-39%)	3 (3=40-59%)	0	3 (3=40-59%)	2 (2=20-39%)	4 (4=60-79%)	2 (2=20-39%)	3 (3=40-59%)	1 (1=0-19%)	3 (3=40-59%)	
Cc1nn(C)c(=O)c(-c2c(F)ccc(Cl)c2CCc2ccc3c(c2)OC(C)(C)O3)c1O [Compound 1.361, [3-chloro-2-[2-(2,2-dimethyl-1,3-benzodioxol-5-yl)ethyl]-6-fluoro-phenyl]-5-hydroxy-2,6-dimethyl-pyridazin-3-one]	5 (5=80-100%)	3 (3=40-59%)	4 (4=60-79%)	1 (1=0-19%)	4 (4=60-79%)	5 (5=80-100%)	5 (5=80-100%)	4 (4=60-79%)	3 (3=40-59%)	4 (4=60-79%)	5 (5=80-100%)	5 (5=80-100%)
Cc1nn(C)c(=O)c(-c2c(F)ccc(Cl)c2CCc2ccc3sccc3c2)c1O [Compound 1.348]	3 (3=40-59%)	4 (4=60-79%)	5 (5=80-100%)	1 (1=0-19%)	5 (5=80-100%)	3 (3=40-59%)	3 (3=40-59%)	4 (4=60-79%)	4 (4=60-79%)	4 (4=60-79%)	4 (4=60-79%)	4 (4=60-79%)
Cc1nn(C)c(=O)c(-c2c(F)ccc(Cl)c2CCc2ccc3c(cnn3C)c2)c1O [Compound 1.354]	4 (4=60-79%)	5 (5=80-100%)	4 (4=60-79%)	4 (4=60-79%)	5 (5=80-100%)	5 (5=80-100%)	4 (4=60-79%)	5 (5=80-100%)	4 (4=60-79%)	4 (4=60-79%)	4 (4=60-79%)	4 (4=60-79%)
Cc1nn(C)c(=O)c(-c2c(F)ccc(Cl)c2/C=C/c2cn3ccnc3cn2)c1O [Compound 2.363]	5 (5=80-100%)	5 (5=80-100%)	5 (5=80-100%)	2 (2=20-39%)	5 (5=80-100%)	4 (4=60-79%)	0	0	1 (1=0-19%)	0	2 (2=20-39%)	0
Cc1nn(C)c(=O)c(-c2c(F)ccc(Cl)c2CCc2ccc3c(c2)OC(F)(F)O3)c1O [Compound 1.342]	4 (4=60-79%)	5 (5=80-100%)	5 (5=80-100%)	1 (1=0-19%)		5 (5=80-100%)	5 (5=80-100%)	5 (5=80-100%)	5 (5=80-100%)	4 (4=60-79%)	5 (5=80-100%)	4 (4=60-79%)
Cc1nn(C)c(=O)c(-c2c(F)ccc(Cl)c2CCc2ccc3ncsc3c2)c1O [Compound 1.349]	4 (4=60-79%)	5 (5=80-100%)	5 (5=80-100%)	4 (4=60-79%)	5 (5=80-100%)	5 (5=80-100%)	4 (4=60-79%)	4 (4=60-79%)	4 (4=60-79%)	2 (2=20-39%)	4 (4=60-79%)	4 (4=60-79%)
Cc1nn(C)c(=O)c(-c2c(F)ccc(Cl)c2CCc2ccc3ccsc3c2)c1O [Compound 1.347]	5 (5=80-100%)	2 (2=20-39%)	5 (5=80-100%)	3 (3=40-59%)	5 (5=80-100%)	3 (3=40-59%)	4 (4=60-79%)	4 (4=60-79%)	4 (4=60-79%)	4 (4=60-79%)	4 (4=60-79%)	4 (4=60-79%)
Cc1nn(C)c(=O)c(-c2c(F)ccc(Cl)c2CCc2cccc3ccccc23)c1O [Compound 1.044]	3 (3=40-59%)	0	2 (2=20-39%)	1 (1=0-19%)	3 (3=40-59%)	0	3 (3=40-59%)	0	3 (3=40-59%)	1 (1=0-19%)	4 (4=60-79%)	0
